The values that follow come from patent EP2998292A1, “Naphthyl sulfonamide derivatives as KEAP-1 modulators for the treatment of diabetes, obesity, dyslipidemia and related disorders” (SANOFI, priority 2014, dated 2016).

The experiment concerns the target T1, human Keap1 kelch domain (amino acids Ala321-Thr609) (Homo sapiens, UniProt Q14145).
T1 construct: human Keap1 kelch domain (amino acids Ala321-Thr609)
As to the kind of experiment: Keap1-Nrf2 peptide binding assay (fluorescence polarisation). The note with it: binding of Keap1 kelch domain (20 nM) to fluorescently labeled Nrf2 peptide Alexa633-AFFAQLQLDEETGEFL (50 nM); ambient temperature. The procedure:
Keap1-Nrf2 peptide binding assay
A fluorescence polarisation assay was used to measure binding of the human Keap1 kelch domain (amino acids Ala321-Thr609) to a fluorescently labeled peptide containing a Keap1 binding site of human Nrf2 (Alexa633-AFFAQLQLDEETGEFL; JPT Technologies, Berlin, Germany). Two microliters of test compound in reaction buffer (phosphate-buffered saline, 2 mM DL-dithiothreitol, 0.015 % (v/v) Brij-35) containing 6 % (v/v) DMSO were mixed with two microliters of the Keap1 kelch domain in reaction buffer in a black 384-well small volume microtiter plate and incubated at ambient temperature for 15 minutes. Thereafter, two microliters were added of the fluorescently labeled Nrf2 peptide in reaction buffer, and the mixture was incubated for a further 30 minutes at ambient temperature. Final concentrations of the Keap1 kelch domain and the fluorescently labeled Nrf2 peptide were 20 nM and 50 nM, respectively. Fluorescence polarization (FP) was measured at excitation and emission wavelengths of 635 nm and 660 nm, respectively. Positive controls for binding (two microliters of reaction buffer containing 6 % (v/v) DMSO instead of test compound in the same buffer) and negative controls (as positive controls, but without Keap1 kelch domain) were included on each microtiter plate. Data were expressed as percent-inhibition values: percent inhibition = 100⋅(1-(|FPcompound-FPnegative control|)/(|FPpositive control-FPnegative control|)) [formula]
IC50 values were determined by testing different compound concentrations and fitting the resulting percent-inhibition values to the following equation using XLFit4: percent inhibition = A + (B-A)/(1 + (((IC50)/([Compound])))^D) [formula]
Parameter A was set to zero, pre-fit values for parameters B and D were set to 100 and 1, respectively.
On the technique in general: In fluorescence polarisation assays a small probe gives low polarisation when free and higher when bound to something large.

T1 sequence (Q14145 321-609): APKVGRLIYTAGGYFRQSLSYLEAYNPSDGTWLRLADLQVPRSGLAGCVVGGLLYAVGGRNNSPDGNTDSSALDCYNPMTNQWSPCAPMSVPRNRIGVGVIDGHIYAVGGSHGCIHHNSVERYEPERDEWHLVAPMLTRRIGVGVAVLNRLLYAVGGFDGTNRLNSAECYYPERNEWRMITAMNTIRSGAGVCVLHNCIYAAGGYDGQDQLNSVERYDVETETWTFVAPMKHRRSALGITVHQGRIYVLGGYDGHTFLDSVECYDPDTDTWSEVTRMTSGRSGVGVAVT

“1-[4-[(5-chloro-1,3-dimethyl-pyrazol-4-yl)sulfonylamino]-2-naphthyl]piperidine-3-carboxylic acid; 2,2,2-trifluoroacetic acid [Example 11]”: the IC50 (commonly the concentration that inhibits the measured activity by half) was found to be 26.7 µM.

Regarding `Cc1cc(C)c(C)c(S(=O)(=O)Nc2cc(C(CC(=O)O)c3ccccc3)cc3ccccc23)c1C` (stereo not shown) [Example 4, 3-phenyl-3-[4-[(2,3,5,6-tetramethylphenyl)sulfonylamino]-2-naphthyl]propanoic acid], the IC50 came to 14.4 µM.

Regarding `Cc1cc(C)c(C)c(S(=O)(=O)Nc2cc(CC(C(=O)O)C(F)(F)F)cc3ccccc23)c1C` (stereo not shown) [Example 10, 3,3,3-trifluoro-2-[[4-[(2,3,5,6-tetramethylphenyl)sulfonylamino]-2-naphthyl]methyl]propanoi c acid], the IC50 was 15.7 µM.

In turn, `Cc1cc(C)c(C)c(S(=O)(=O)Nc2cc(N3CCCC(C(=O)O)C3)cc3ccccc23)c1C` (stereo not shown) [Example 12, 1-[4-[(2,3,5,6-tetramethylphenyl)sulfonylamino]-2-naphthyl]piperidine-3-carboxylic acid; 2,2,2-trifluoroacetic acid] yielded an IC50 of 8.6 µM.

For the compound `Cc1cc(C)c(C)c(S(=O)(=O)Nc2cc(C3CCCC3C(=O)O)cc3ccccc23)c1C` (stereo not shown) [Example 3, 2-[4-[(2,3,5,6-tetramethylphenyl)sulfonylamino]-2-naphthyl]cyclopentaneca rboxylic acid], the IC50 stood at 5.2 µM.

`Cc1cc(C)c(C)c(S(=O)(=O)Nc2cc(C3=CCC(C(=O)O)CC3)cc3ccccc23)c1C` (stereo not shown) [Example 9, 4-[4-[(2,3,5,6-tetramethylphenyl)sulfonylamino]-2-naphthyl]cyclohex-3-ene-1-carboxylic acid] registered an IC50 of 2.9 µM.

`CCCCCC(CC(=O)O)c1cc(NS(=O)(=O)c2c(C)c(C)cc(C)c2C)c2ccccc2c1` (stereo not shown) [Example 1, 3-[4-[(2,3,5,6-tetramethylphenyl)sulfonylamino]-2-naphthyl]octanoic acid] gave an IC50 of 13 µM.

Turning to `Cc1cc(C)c(C)c(S(=O)(=O)Nc2ccc(CC(C(=O)O)c3cccc(C(F)(F)F)c3)c3ccccc23)c1C` (stereo not shown) [Example 14, 3-[4-[(2,3,5,6-tetra-methylphenyl)sulfonylamino]-1-naphthyl]-2-[3-(trifluoromethyl)phenyl]pr opanoic acid], the IC50 came out at 4 µM.

In turn, `Cc1cc(C)c(C)c(S(=O)(=O)Nc2ccc(C(CC(=O)O)c3ccccc3)c3ccccc23)c1C` (stereo not shown) [Example 13, 3-phenyl-3-[4-[(2,3,5,6-tetramethylphenyl)sulfonylamino]-1-naphthyl]propanoic acid] showed an IC50 of 6.5 µM.

With `CCCCCC(Oc1cc(NS(=O)(=O)c2c(C)c(C)cc(C)c2C)c2ccccc2c1)C(=O)O` (stereo not shown) [Example 5, 2-[[4-[(2,3,5,6-tetramethylphenyl)sulfonylamino]-2-naphthyl]oxy]heptanoic acid], the IC50 is 3.3 µM.
